Source: patent US20140178318A1, “NOVEL COMPOUNDS” (DSM IP ASSETS B.V., priority 2009, published 2014)

Test: Comparative example: solubility of BMDBM in 1:1 mixture of C12-15 alkyl benzoate and other UV-filter
Excerpt: Where necessary the mixture was centrifuged in order to obtain a clear supernatant.

Solubility of BMDBM in C12-15 alkyl benzoate/UV-filter 1:1 (200 mg BMDBM with 1000 mg of 1:1 mixture, supernatant by HPLC after 1 month at RT): 3 wt.-%
Δ solubility related to cosmetic solvent (BMDBM) (C12-15 alkyl benzoate/UV-filter 1:1): −4 wt.-%
Δ solubility of BMDBM (C12-15 alkyl benzoate/UV-filter 1:1 versus C12-15 alkyl benzoate): −11 wt.-%
SMILES: CCCCC(CC)COc1ccc(-c2nc(-c3ccc(OC)cc3)nc(-c3ccc(OCC(CC)CCCC)cc3O)n2)c(O)c1 (stereo not drawn) [BEMT, bis-ethylhexyloxyphenol methoxyphenyl triazine]
